From PMC9354408, “How to Achieve Sufficient Endogenous Insulin Suppression in Euglycemic Clamps Assessing the Pharmacokinetics and Pharmacodynamics of Long-Acting Insulin Preparations Employing Healthy Volunteers” (Frontiers in Pharmacology, 2022)

Key:
Format in all cases: in vivo, healthy Chinese men and women
[1] = Manual euglycemic glucose clamp, glucose infusion rate (pharmacodynamics); conditions: for AUCGIR,0-24h / GIRmax / tGIRmax: 0.5 IU/kg s.c., arithmetic mean ± SD; for AUCGIR,0-12h: single 0.5 IU/kg s.c. IGlar (LY2963016 or Lantus), clamp up to 24 h, target BG 0.28 mmol/L below baseline, median (interquartile range); for GIRmax after correction / AUCGIR, 0–24 h after correction: corrected using the corresponding exogenous IGlar parameter as a covariant; for AUCGIR, 0–24 h after correction: first mention
Experimental: (§1) All enrolled subjects underwent a euglycemic glucose clamp lasting for up to 24 h after a 0.5-IU/kg IGlar injection. All the participants were restrained from strenuous exercise, smoking, alcohol, or caffeinated drinks. Since a C-peptide suppression of more than 50% is widely recognized as sufficient endogenous insulin suppression, the subjects fell into two groups based on the ratio of C-peptide reduction from baseline (group A: C-peptide reduction <50%; group B: C-peptide reduction ≥50%). The data were collected from a clinical trial (NCT03555305) ([Liu et al., 2021]), which was conducted to evaluate the pharmacokinetic and pharmacodynamic equivalence of an IGlar biosimilar (LY2963016) manufactured by Eli Lilly to Lantus manufactured by Sanofi.
At the dosing visit, an overnight fast of at least 8 h must be guaranteed prior to IGlar administration. Two catheters were placed into the antecubital vein and the hand vein, respectively, for 20% dextrose infusing and blood sampling correspondingly. The baseline of BG was defined as the mean of three BG measurements at 30, 20, and 10 min prior to the IGlar administration. A single dose (0.5 IU/kg) of Lantus or LY2963016 was subcutaneously injected into a lifted abdominal skinfold. A 0.1-ml blood sample was collected from the hand vein which was continuously heated in a warm blanket (55 ± 5 °C) at an interval of 10–20 min for the analysis of BG levels. A variable GIR was frequently adjusted and timely recorded to maintain the BG around 0.28 mmol/L below the baseline and represent the pharmacodynamic activity of IGlar, respectively.
The BG levels were immediately determined in whole blood at the bedside by a glucose analyzer (Biosen C_line, EKF Diagnostics, Barleben, Germany) with the glucose oxidase method. The measuring range of this method was 0.5–50 mmol/L with a high precision of 1.5%. The clamp would end if no exogenous glucose infusion was required for at least 0.5 h.
Individual GIR values were smoothed by a locally weighted scatterplot smoothing technique. The maximum GIR (GIRmax) and the total amount of glucose infused throughout the clamp (AUCGIR, 0–24 h) were defined as primary PD parameters. Secondary PD parameters included time to GIRmax (tGIRmax) and AUC of GIR from 0 to 12 h (AUCGIR, 0–12 h).

[2] = tested on: endogenous insulin secretion; assay: Serum C-peptide during clamp (endogenous insulin suppression, direct chemiluminescence); conditions: arithmetic mean ± SD; for Mean postdose C-peptide: after 0.5 IU/kg s.c. IGlar; for C-peptide reduction: postdose versus baseline
Experimental: as §1
(§2) A 6-ml blood sample for analysis of C-peptide and total insulin levels were collected before drug administration (0.5 and 0 h before dosing) and every 0.5–3 h throughout the clamp as described before ([Liu et al., 2021]). The whole blood sample was drawn into a serum tube and gently mixed by inversion (>5 times). Then the sample was required to clot for 30–60 min at room temperature. The tube was centrifuged at 1,500–2000g for 15–20 min to separate serum. The serum was transferred without red blood cells contained, and frozen at -70 °C until shipment for analysis. The concentration of total insulin was determined by a validated radioimmunoassay method ([Kuerzel et al., 2003]; [Shen et al., 2019]) with a quantification range of 50–2000 pmol/L at WuXi AppTec Co., Ltd. in Shanghai, China. The exogenous IGlar level was calculated by subtracting the endogenous insulin based on C-peptide using Owens’s method ([Owens, 1986]). The C-peptide concentration was analyzed by a direct chemiluminescent technology in Covance Laboratory (Shanghai, China) with a quantification range of 0.07–352 ng/ml.
(§3) If a measured value of total insulin or C-peptide was below the lower limit of quantification, it would be included in statistics as half of the limit. A calculated value of IGlar below zero after C-peptide correction would be excluded from the PK statistics. The primary PK parameters included the area under the curve (AUC) of IGlar from time 0–24 h (AUCIGlar, 0–24 h) and the maximum IGlar (IGlarmax) corrected by C-peptide. Other PK parameters included AUC of IGlar from 0 to 12 h (AUCIGlar, 0–12 h) and time to IGlarmax (tIGlarmax).

[3] = Serum total insulin during clamp (radioimmunoassay); design: AUCTotal insulin,0-12h / AUCTotal insulin,0-24h: unit not given here; conditions: 0.5 IU/kg s.c., arithmetic mean ± SD; for AUCTotal insulin,0-12h / AUCTotal insulin,0-24h: serum, before C-peptide correction
Experimental: as §1, §2, §3

[4] = Pharmacokinetics of exogenous IGlar (total insulin radioimmunoassay, C-peptide corrected by Owens's method); conditions: 0.5 IU/kg s.c., arithmetic mean ± SD; for AUCIGlar,0-12h / AUCIGlar,0-24h / IGlarmax: serum, C-peptide corrected
Experimental: as §1, §2, §3

[5] = group A (C-peptide reduction <50%), N = 52
[6] = group B (C-peptide reduction >=50%), N = 26

Substance: insulin glargine [IGlar]
- AUCGIR,0-24h [1, 5]: 2,415 ± 953 mg/kg
- GIRmax [1, 5]: 2.82 ± 1.06 mg/kg/min
- tGIRmax [1, 5]: 666 ± 202 min
- AUCGIR,0-12h [1, 5]: 989 (642) mg/kg
- GIRmax after correction ([1]; group A): 2.96 mg/kg/min
- AUCGIR, 0–24 h after correction ([1]; group A): 2,513 mg/kg
- AUCGIR,0-24h [1, 6]: 2,891 ± 908 mg/kg
- GIRmax [1, 6]: 3.36 ± 1.07 mg/kg/min
- tGIRmax [1, 6]: 678 ± 180 min
- AUCGIR,0-12h [1, 6]: 1,320 (615) mg/kg
- GIRmax after correction ([1]; group B): 3.09 mg/kg/min
- AUCGIR, 0–24 h after correction ([1]; group B): 2,697 mg/kg
- Mean postdose C-peptide [2, 5]: 201 ± 74 pmol/L
- C-peptide reduction ([2]; group A (defined by C-peptide reduction <50%), N = 52): 39.5 ± 6.7%
- Mean postdose C-peptide [2, 6]: 134 ± 50 pmol/L
- C-peptide reduction ([2]; group B (defined by C-peptide reduction >=50%), N = 26): 57.4 ± 5.5%
- Maximum total insulin [3, 5]: 151.8 ± 42.0 pmol/L
- Time of maximum total insulin [3, 5]: 10.9 ± 5.55 h
- AUCTotal insulin,0-12h [3, 5]: 1,444 ± 398
- AUCTotal insulin,0-24h [3, 5]: 2,853 ± 713
- Maximum total insulin [3, 6]: 162.1 ± 41.9 pmol/L
- Time of maximum total insulin [3, 6]: 10.8 ± 3.77 h
- AUCTotal insulin,0-12h [3, 6]: 1,510 ± 368
- AUCTotal insulin,0-24h [3, 6]: 2,958 ± 626
- tIGlarmax [4, 5]: 11.7 ± 3.97 h
- AUCIGlar,0-12h [4, 5]: 1,099 ± 342 pmol/L×h
- AUCIGlar,0-24h [4, 5]: 2,194 ± 597 pmol/L×h
- IGlarmax [4, 5]: 122.7 ± 37.7 pmol/L
- tIGlarmax [4, 6]: 11.6 ± 2.66 h
- AUCIGlar,0-12h [4, 6]: 1,295 ± 360 pmol/L×h
- AUCIGlar,0-24h [4, 6]: 2,534 ± 597 pmol/L×h
- IGlarmax [4, 6]: 147.7 ± 42.5 pmol/L
